Common to all, as to experiment: KinomeScan 96-kinase panel
Holding throughout (type): binding
Holding throughout (details): compound concentration 1000 nM

The target in experiment [1] is MLK1 (Homo sapiens (Human), UniProt P80192). An excerpt:
(§1) The details of the screening technology were described in Fabian, M. A. et al, Nat., Biotechnol. 2005, 23, 329 and Karaman, M. W. et al, Nat., Biotechnol. 2008, 26, 127. From the above representative results, it can be seen that the compounds of the present invention have potent inhibitory activities on kinases including ALK, AXL, VEGFR2, PDGFR-α, PDGFR-β, c-KIT, Flt3, MEK1, MEK2, CSF1R, EPHA2, EPHA2, MKNK2, SRC, TIE2 and their mutants. Accordingly, the compounds of the present invention can be used for the treatment of diseases caused by abnormal activities of these kinases, e.g., cancer, psoriasis, hepatic cirrhosis, diabetes, diseases involving angiogenesis, eye diseases, immune system diseases, cardiovascular diseases, and so forth.

Experiment [2] deals with PKAC-alpha (Homo sapiens (Human), UniProt P17612).
Source text: as §1

Experiment [3] deals with MKNK2 (Homo sapiens (Human), UniProt Q9HBH9).
MKNK2, sequence (Q9HBH9 whole entry): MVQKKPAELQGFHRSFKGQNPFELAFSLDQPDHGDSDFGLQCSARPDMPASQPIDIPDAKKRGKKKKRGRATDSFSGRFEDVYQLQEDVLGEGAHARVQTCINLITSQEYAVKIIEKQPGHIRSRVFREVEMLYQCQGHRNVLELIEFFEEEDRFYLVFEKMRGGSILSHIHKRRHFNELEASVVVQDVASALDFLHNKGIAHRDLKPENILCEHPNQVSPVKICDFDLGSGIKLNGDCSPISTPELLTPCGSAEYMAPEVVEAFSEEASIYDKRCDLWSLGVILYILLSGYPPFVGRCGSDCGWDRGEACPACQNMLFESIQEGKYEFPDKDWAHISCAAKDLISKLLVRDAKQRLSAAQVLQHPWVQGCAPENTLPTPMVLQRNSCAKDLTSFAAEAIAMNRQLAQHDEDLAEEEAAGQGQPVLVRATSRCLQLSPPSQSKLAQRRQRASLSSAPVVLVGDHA
Source text: as §1

Experiment [4] deals with ROCK2 (Homo sapiens (Human), UniProt O75116).
ROCK2, sequence (O75116 whole entry): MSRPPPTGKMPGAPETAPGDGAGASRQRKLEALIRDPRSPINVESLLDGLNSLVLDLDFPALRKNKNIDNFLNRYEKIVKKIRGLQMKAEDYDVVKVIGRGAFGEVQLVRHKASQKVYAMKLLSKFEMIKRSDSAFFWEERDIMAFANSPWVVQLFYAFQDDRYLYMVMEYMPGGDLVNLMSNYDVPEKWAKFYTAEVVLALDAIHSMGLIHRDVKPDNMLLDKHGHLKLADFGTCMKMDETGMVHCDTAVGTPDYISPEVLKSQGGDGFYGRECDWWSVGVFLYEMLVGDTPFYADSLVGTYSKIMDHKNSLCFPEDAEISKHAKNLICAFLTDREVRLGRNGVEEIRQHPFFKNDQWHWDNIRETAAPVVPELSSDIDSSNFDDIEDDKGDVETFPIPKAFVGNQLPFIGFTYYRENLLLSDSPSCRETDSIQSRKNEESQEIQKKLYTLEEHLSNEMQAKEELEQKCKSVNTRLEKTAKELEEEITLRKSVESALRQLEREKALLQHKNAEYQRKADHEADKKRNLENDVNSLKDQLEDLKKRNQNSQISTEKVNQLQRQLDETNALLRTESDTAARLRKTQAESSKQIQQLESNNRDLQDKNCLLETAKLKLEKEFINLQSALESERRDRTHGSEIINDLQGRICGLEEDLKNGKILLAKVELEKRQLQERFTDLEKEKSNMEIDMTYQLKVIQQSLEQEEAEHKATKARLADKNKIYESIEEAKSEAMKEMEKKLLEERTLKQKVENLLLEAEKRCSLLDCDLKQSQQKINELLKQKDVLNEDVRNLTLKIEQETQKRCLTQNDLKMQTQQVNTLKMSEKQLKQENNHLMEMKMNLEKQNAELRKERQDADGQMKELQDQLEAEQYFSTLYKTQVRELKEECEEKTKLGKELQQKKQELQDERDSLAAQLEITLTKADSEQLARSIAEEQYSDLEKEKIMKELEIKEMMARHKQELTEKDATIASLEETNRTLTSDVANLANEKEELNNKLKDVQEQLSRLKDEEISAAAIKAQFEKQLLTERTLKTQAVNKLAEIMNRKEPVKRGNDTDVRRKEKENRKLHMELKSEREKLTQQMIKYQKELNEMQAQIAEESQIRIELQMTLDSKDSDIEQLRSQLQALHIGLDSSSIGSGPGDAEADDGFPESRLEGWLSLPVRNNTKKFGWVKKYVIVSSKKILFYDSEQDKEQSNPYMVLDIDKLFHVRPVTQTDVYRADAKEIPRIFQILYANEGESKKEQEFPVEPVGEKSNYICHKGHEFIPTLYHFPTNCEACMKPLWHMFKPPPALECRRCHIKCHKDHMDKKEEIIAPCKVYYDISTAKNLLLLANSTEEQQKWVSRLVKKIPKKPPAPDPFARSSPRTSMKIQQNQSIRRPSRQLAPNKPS
Source text: as §1

The target in experiment [5] is p38-beta (Homo sapiens (Human), UniProt Q15759).
Source text: as §1

The target of experiment [6] is AKT2 (Homo sapiens (Human), UniProt P31751).
Source text: as §1

The target of experiment [7] is RSK2 (Kin.Dom.1-N-terminal) (Homo sapiens (Human), UniProt P51812).
Source text: as §1

In experiment [8] the target is MEK2 (Homo sapiens (Human), UniProt P36507).
Source text: as §1

The target in experiment [9] is PIM1 (Homo sapiens (Human), UniProt P11309).
Source text: as §1

For experiment [10], the target named is CDK2 (Homo sapiens (Human), UniProt P24941).
Source text: as §1

Experiment [11] deals with PDGFRB (Homo sapiens (Human), UniProt P09619).
Source text: as §1

Experiment [12] deals with DYRK1B (Homo sapiens (Human), UniProt Q9Y463).
DYRK1B, sequence (Q9Y463 whole entry): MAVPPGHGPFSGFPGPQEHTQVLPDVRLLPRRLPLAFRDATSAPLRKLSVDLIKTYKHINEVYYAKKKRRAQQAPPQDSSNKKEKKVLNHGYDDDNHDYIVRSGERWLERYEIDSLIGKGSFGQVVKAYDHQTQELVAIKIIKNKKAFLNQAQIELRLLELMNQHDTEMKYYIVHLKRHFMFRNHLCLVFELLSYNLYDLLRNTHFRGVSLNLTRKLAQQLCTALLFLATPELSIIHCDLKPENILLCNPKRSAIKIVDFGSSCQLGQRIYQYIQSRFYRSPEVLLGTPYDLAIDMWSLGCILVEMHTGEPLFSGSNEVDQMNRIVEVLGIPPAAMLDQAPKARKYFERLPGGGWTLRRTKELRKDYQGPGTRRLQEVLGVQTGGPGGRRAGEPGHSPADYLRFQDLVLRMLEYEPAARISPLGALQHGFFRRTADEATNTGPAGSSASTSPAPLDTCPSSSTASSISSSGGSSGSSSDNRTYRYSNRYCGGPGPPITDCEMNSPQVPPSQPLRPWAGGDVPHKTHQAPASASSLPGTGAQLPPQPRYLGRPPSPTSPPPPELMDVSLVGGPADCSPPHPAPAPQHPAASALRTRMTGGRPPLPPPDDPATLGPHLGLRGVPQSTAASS
Source text: as §1

Experiment [13] concerns the target p38-alpha (Homo sapiens (Human), UniProt Q16539).
Source text: as §1

Experiment [14] addresses PAK4 (Homo sapiens (Human), UniProt O96013).
Source text: as §1

Experiment [15] addresses KIT (Homo sapiens (Human), UniProt P10721).
Source text: as §1

In experiment [16] the target is FGFR2 (Homo sapiens (Human), UniProt P21802).
FGFR2, sequence (P21802 22-821): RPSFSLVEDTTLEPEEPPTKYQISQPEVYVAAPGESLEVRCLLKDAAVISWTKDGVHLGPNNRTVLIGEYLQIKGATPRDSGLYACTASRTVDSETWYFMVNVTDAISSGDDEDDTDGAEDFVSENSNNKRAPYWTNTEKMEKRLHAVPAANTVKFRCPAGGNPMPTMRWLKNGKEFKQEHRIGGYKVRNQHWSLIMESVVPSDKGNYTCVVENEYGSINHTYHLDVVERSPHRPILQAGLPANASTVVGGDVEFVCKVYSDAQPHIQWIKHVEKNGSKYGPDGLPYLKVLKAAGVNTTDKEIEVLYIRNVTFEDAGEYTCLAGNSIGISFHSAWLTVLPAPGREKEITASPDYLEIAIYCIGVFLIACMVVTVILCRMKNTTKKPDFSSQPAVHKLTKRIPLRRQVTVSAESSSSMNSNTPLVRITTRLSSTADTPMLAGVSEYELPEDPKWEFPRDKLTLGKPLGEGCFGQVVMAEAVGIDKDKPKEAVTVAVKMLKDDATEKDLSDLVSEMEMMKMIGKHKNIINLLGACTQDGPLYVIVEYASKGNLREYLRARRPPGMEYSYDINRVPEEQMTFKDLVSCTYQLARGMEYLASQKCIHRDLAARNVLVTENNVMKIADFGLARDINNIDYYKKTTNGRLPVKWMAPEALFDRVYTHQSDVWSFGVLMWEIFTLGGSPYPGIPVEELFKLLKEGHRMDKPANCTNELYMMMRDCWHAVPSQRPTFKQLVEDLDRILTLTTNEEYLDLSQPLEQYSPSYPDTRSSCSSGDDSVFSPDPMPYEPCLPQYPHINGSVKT
Source text: as §1

The target in experiment [17] is JAK2 (JH1domain-catalytic) (Homo sapiens (Human), UniProt O60674).
Source text: as §1

Experiment [18] addresses JAK3 (JH1domain-catalytic) (Homo sapiens (Human), UniProt P52333).
Source text: as §1

Experiment [19] deals with ALK (Homo sapiens (Human), UniProt Q9UM73).
Source text: as §1

Experiment [20] has as its target MAPKAPK2 (Homo sapiens (Human), UniProt P49137).
Source text: as §1

The target in experiment [21] is CSNK1G2 (Homo sapiens (Human), UniProt P78368).
CSNK1G2, sequence (P78368 whole entry): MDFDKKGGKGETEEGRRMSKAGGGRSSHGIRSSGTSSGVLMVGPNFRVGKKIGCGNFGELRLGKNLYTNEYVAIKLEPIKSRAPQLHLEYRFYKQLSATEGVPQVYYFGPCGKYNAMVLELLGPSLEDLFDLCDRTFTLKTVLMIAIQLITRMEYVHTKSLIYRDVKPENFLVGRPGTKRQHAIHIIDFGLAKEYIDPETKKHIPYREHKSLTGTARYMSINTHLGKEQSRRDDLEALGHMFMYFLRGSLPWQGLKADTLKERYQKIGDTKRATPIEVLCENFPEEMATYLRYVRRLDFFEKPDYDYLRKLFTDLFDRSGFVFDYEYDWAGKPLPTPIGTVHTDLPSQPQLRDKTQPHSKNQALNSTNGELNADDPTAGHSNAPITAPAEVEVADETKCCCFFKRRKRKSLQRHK
Source text: as §1

MAPKAPK2, sequence (P49137 whole entry): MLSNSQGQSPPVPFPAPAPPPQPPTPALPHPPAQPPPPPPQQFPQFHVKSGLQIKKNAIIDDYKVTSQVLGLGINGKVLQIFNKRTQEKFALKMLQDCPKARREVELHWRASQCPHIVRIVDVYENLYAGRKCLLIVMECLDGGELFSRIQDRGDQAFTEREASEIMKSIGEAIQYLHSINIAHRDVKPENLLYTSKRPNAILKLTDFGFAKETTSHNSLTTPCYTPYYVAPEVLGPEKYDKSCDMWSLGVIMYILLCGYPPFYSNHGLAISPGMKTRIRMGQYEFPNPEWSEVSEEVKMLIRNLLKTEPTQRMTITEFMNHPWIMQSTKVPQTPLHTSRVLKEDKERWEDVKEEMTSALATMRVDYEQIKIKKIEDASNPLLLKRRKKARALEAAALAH
p38-alpha, sequence (Q16539 whole entry): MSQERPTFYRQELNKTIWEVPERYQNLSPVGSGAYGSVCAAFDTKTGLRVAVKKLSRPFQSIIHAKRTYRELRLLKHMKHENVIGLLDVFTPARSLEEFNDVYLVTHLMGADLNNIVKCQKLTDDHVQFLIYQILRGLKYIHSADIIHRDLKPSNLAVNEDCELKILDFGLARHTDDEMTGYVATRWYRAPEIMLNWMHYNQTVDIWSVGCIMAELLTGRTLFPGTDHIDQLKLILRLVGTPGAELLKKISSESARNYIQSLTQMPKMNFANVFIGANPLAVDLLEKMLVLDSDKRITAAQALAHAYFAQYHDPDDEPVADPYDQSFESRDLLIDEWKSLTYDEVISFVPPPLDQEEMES
PAK4, sequence (O96013 whole entry): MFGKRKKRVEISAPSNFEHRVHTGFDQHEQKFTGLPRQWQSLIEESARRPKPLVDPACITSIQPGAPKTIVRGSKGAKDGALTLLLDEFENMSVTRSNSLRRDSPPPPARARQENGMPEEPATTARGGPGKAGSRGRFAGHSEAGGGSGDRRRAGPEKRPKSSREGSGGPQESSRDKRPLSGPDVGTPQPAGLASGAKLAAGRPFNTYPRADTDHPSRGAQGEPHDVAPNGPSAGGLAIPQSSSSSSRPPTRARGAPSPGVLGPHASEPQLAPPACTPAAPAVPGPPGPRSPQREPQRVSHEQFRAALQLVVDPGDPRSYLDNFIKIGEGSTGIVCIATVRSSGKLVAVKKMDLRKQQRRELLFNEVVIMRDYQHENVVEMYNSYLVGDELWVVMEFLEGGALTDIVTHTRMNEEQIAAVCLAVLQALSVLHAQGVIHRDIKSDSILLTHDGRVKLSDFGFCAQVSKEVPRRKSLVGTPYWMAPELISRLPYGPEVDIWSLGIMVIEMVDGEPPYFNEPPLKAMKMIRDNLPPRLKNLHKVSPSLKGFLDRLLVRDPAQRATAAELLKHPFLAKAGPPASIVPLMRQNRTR

As to `COc1cc2c(Oc3ccc(NC(=O)C4(C(=O)Nc5ccc(F)cc5)CC4)cc3F)ccnc2cc1OCCCCCC(=O)NO` [Example 13, N1′-[3-fluoro-4-[[7-[6-(hydroxyamino)-6-oxohexyloxy]-6-methoxy-4-quinolyl]oxy]phenyl]-N1-(4-fluorophenyl)cyclopropane-1,1-dicarboxamide], the “% Ctrl@1000 nM” value in [1] came out at 32 % Ctrl; in experiment [2], 100 % Ctrl; in [3], 0.1 % Ctrl; in experiment [4] it was 53 % Ctrl; in [5], 78 % Ctrl; in [6], 100 % Ctrl. Also, the “% Ctrl@1000 nM” value is reported as 96 % Ctrl in experiment [7]; 1.8 % Ctrl in [8]; 100 % Ctrl in [9]; 73 % Ctrl in [10]; 0 % Ctrl in [11]; 63 % Ctrl in experiment [12]. In addition, the “% Ctrl@1000 nM” value in experiment [13] turned out to be 43 % Ctrl; in experiment [14] it was 100 % Ctrl; in [15], 0 % Ctrl; in [16], 65 % Ctrl; in experiment [17] it was 64 % Ctrl; in [18] it was 76 % Ctrl. For the same compound, the figures for the “% Ctrl@1000 nM” value in experiment [19], in experiment [20] and in experiment [21] were 1.2 % Ctrl, 67 % Ctrl and 99 % Ctrl, respectively.
